Read-outs that look alike come from different tables or passages of the source.
Experiments:
A-2 receptors = settings: rank order; cited from earlier work
Adenosine A-1 receptor [1] = molecular target: T1, Adenosine A-1 receptor (Rattus norvegicus, UniProt P25099); test: Test for affinity for brain adenosine A-1 receptor binding sites ([3H]cyclohexyladenosine displacement); settings: ratio of A-2 Ki to A-1 Ki
T1 sequence (P25099 1-326): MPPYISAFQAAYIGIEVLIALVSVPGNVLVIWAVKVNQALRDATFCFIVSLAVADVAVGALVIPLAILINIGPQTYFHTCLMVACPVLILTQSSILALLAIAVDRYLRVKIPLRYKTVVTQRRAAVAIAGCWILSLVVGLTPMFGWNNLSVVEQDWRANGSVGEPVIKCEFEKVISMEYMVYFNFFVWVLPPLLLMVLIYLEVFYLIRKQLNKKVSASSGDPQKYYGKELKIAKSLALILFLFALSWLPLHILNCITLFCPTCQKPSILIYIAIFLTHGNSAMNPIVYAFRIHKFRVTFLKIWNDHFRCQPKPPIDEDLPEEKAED

Adenosine A-1 receptor [2] = molecular target: T1, Adenosine A-1 receptor
[3] = tested on: effects of adenosine analogs on heart rate and blood pressure; settings: heart rate compared with blood pressure; cited from earlier work
A-1 receptors = settings: cited from earlier work

Nc1nc(Cl)nc2c1ncn2[C@@H]1O[C@H](CO)[C@@H](O)[C@H]1O [2-chloroadenosine]
order of potency at A-2 receptors (A-2 receptors): NECA>2-chloroadenosine>R-PIA>CHA

C1=Nc2c(cnn2-c2ccccc2)C2=N[C@H](Cc3ccccc3)CN12 [Compound 3, (R)-2,7-dihydro-7-phenyl-2-(phenylmethyl)-3H-imidazo-[1,2-c]pyrazolo-[4,3-e]pyrimidine]
A-2 Ki/A-1 Ki (Adenosine A-1 receptor [1]): 13.20

C1=Nc2c(ncn2-c2ccccc2)C2=N[C@H](Cc3ccccc3)CN12 [Compound 6, (R)-7,8-dihydro-3-phenyl-8-(phenylmethyl)-3H-diimidazo[1,2-c: 4',5'-e]pyrimidine]
A-2 Ki/A-1 Ki (Adenosine A-1 receptor [2]): 16.40

CCCOC1=Nc2c(cnn2-c2ccccc2)C2=N[C@H](C)[C@@H](c3ccccc3)N12 [Compound 7, (2R-trans)-2,7-dihydro-2-methyl-3,7-diphenyl-5-propoxy-3H-Imidazo-[1,2-c]pyrazolo[4,3-s]pyrimidine]
A-2 Ki/A-1 Ki (Adenosine A-1 receptor [1]): 1.17

CCNC(=O)[C@H]1O[C@@H](n2cnc3c(N)ncnc32)[C@H](O)[C@@H]1O [NECA, N-5'-ethylcarboxamidoadenosine]
order of potency at A-2 receptors (A-2 receptors): NECA>2-chloroadenosine>R-PIA>CHA

CCCn1c(=O)c2[nH]c(-c3ccc(OCC(=O)NCCN)cc3)nc2n(CCC)c1=O [XAC]
antagonizing the effects of adenosine analogs on heart rate versus blood pressure [3]: much more potent in antagonizing the effects of adenosine analogs on heart rate than on blood pressure
higher affinity for A-1 adenosine receptors (A-1 receptors; A-1 Ki compared with Ki at A-2 receptors of the brain slice assay): 40 fold

CCCn1c(=O)c2[nH]c(-c3ccc(OCC(=O)O)cc3)nc2n(CCC)c1=O [XCC]
adenosine receptor selectivity (A-1 receptors; A-1 versus A-2, in vitro): non-selective

Source: patent US5086176A, “Tricyclic fused adenine derivatives” (priority 1991, dated 1992)
